Laboratory results: paper PMC6413231, “o-Vanillin Derived Schiff Bases and Their Organotin(IV) Compounds: Synthesis, Structural Characterisation, In-Silico Studies and Cytotoxicity” (International Journal of Molecular Sciences, 2019)

What was measured:
[1] = tested on: SJ-G2 (glioblastoma) cancer cells; assay: MTT growth inhibition assay, SJ-G2; format: cell-based; conditions: for GI50: MTT, 72 h, ± standard error, read-out: Growth Inhibition Concentration, GI50
Procedure: (§1) The Schiff bases and their organotin(IV) compounds were screened for in vitro cytotoxicity against a panel of 12 cancer cell lines: EJ-28 (muscle invasive bladder), RT-112 (minimum-invasive bladder), HT29 (colon), U87 and SJ-G2 (glioblastoma), MCF-7 (breast), A2780 (ovarian), H460 (lung), A431 (skin), DU145 (prostate), BE2-C (neuroblastoma), MIA (pancreatic) and one normal breast cell line (MCF-10A) using the MTT metabolic assay (Figure 6). After 72 h of incubation, a dose-dependent […] effect towards the cancer cell lines was measured at very low micromolar (µM) concentrations of the compounds. The growth inhibition concentration of the Schiff bases and their organotin(IV) compounds required to inhibit 50% cell proliferation relative to the cells that were treated with DMSO (control) are given in Table 2. The stability of these compounds was assessed in DMSO as well as in a mixture of DMSO-H2O. The absorbance obtained from UV-vis spectroscopy analysis was monitored for 72 h, and an unchanged pattern in the spectra was indicative that the compounds were stable in both the solvent systems tested.
(§2) For HT29 (colon), U87 and SJ-G2 (glioblastoma), MCF-7 (breast), A2780 (ovarian), H460 (lung), A431 (skin), Du145 (prostate), BE2-C (neuroblastoma), MIA (pancreas) cell lines and one normal breast cell line, MCF-10A (normal breast), the MTT assays were performed using the following method:
(§3) Stock solutions were prepared as follows and stored at −20 °C: Trial compounds were stored as 10 mM solutions in DMSO. All cell lines were cultured in a humidified atmosphere 5% CO2 at 37 °C. The cancer cell lines were maintained in Dulbecco’s modified Eagle’s medium (DMEM) (Trace Biosciences) supplemented with 10% foetal bovine serum, 10 mM sodium bicarbonate, penicillin (100 IU/mL), streptomycin (100 μg/mL) and glutamine (4 mM). The normal cell line, MCF-10A was cultured in DMEM:F12 (1:1) cell culture media, 5% heat inactivated horse serum, supplemented with penicillin (50 IU/mL), streptomycin (50 μg/mL), 20mM Hepes, L-glutamine (2 mM), epidermal growth factor (20 ng/mL), hydrocortisone (500 ng/mL), cholera toxin (100 ng/mL) and insulin (10 μg/mL).
(§4) Cells in logarithmic growth were transferred to 96-well plates. Cytotoxicity was determined by plating cells in duplicate in 100 μL medium at a density of 2500–4000 cells/well. On day 0 (24 h after plating), when the cells were in logarithmic growth, 100 μL medium, with or without the test agent, was added to each well. After 72 h drug exposure, growth inhibitory effects were evaluated using the MTT (3-[4,5-dimethylthiazol-2-yl]-2,5-diphenyltetrazolium bromide) assay and absorbance read at 540 nm. Percentage growth inhibition was determined at a fixed drug concentration of 25 μM. A value of 100% was indicative of complete cell growth inhibition. Those analogues showing appreciable percentage growth inhibition underwent further dose-response analysis allowing for the calculation of a GI50 value. This value is the drug concentration at which cell growth is 50% inhibited based on the difference between the optical density values on day 0 and those at the end of drug exposure.

A431 (skin) cancer cells = assay: MTT growth inhibition assay, A431; format: cell-based; conditions: 72 h, ± standard error, read-out: Growth Inhibition Concentration, GI50
Procedure: as §1, §2, §3, §4

[2] = tested on: EJ-28 (muscle invasive bladder) cancer cells; assay: MTT cytotoxicity assay, EJ-28; format: cell-based, human; conditions: EJ-28 cells, 72 h, ± standard error, read-out: Growth Inhibition Concentration, GI50
Procedure: as §1
The inhibitory effect of the synthesised compounds on the growth of bladder (EJ-28 and RT-112) cancer cells was evaluated by MTT assay. […] RT-112 and EJ-28, human bladder cancer cell lines used in this study (ATCC, Manassas, VA, USA) were cultured in RPMI-1640 (High glucose) medium supplemented with 10% fetal bovine serum containing 1% penicillin. The cells were cultured at 37 °C in a humidified atmosphere of 5% CO2 in air. Cells were seeded in 96-well plates at 6000 cells per well for 24 h, then they were treated with different concentrations of compounds for 72 h. The medium was subsequently removed and the wells were washed with 200 µL of phosphate buffer saline. Aliquots of 20 µL of 3-(4,5-dimethylthiazol-2-yl)-2,5-diphenyltetrazolium bromide (MTT) was added to each well and incubated for 4 h at 37 °C. Aliquots of 200 µL of media was then removed from each well and 200 µL of DMSO was added. Optical density (OD) was measured using an ELISA plate reader at 570 nm. Control wells (100% viability), containing media and DMSO, were included in all the experiments. All data points represented an average of triplicate assays. Cytotoxicity was expressed as CD50, i.e., the concentration that reduced the absorbance of treated cells by 50% with reference to the control (untreated cells).

[3] = tested on: MCF-7 (breast) cancer cells; assay: MTT growth inhibition assay, MCF-7; format: cell-based; conditions: MCF-7 cells, 72 h, ± standard error, read-out: Growth Inhibition Concentration, GI50
Procedure: as §1, §2, §3, §4

[4] = tested on: U87 (glioblastoma) cancer cells; assay: MTT growth inhibition assay, U87; format: cell-based; conditions: 72 h, ± standard error, read-out: Growth Inhibition Concentration, GI50
Procedure: as §1, §2, §3, §4

calf thymus DNA (CT-DNA) = assay: CT-DNA binding by UV-vis absorption titration; conditions: for Bathochromism Shift (nm) / Hypochromism, (%): CT-DNA, UV-vis absorption titration; for Gibbs Free Energy: interaction with CT-DNA
Procedure: Both theoretical and experimental DNA binding of the synthesised organotin(IV) compounds with DNA were investigated. The interaction of organotin(IV) compounds with CT-DNA was elucidated via UV-visible absorption spectroscopy. […] The absorption spectra of diphenyltin(IV) compounds at a constant concentration (50 μM) in the absence and the presence of different concentrations of CT-DNA are shown in Figure 8. Upon increasing concentrations of CT-DNA, hypochromism and bathochromism occurred at around 350–377 nm indicating strong π–π stacking interactions between the aromatic chromophore of the organotin(IV) compounds and the nitrogeneous pair of the DNA strand [11, 70]. The same hypochromism and bathochromism shifts were also observed in other transitions. In order to compare the binding strength of the organotin(IV) compounds to CT-DNA, the intrinsic binding constants (Kb) were quantitatively determined and are presented in Table 3.
DNA binding experiments were carried out at 25°C. DNA concentration per nucleotide was determined using the molar absorption coefficient (6600 M^−1 cm^−1) at 260 nm. […] Absorption titration experiments were performed maintaining the concentration of the organotin(IV) compounds solutions at 50 µM and gradually increasing the concentration of CT-DNA. The organotin(IV) compounds were dissolved in DMSO and diluted with Tris-HCI buffer at room temperature (25 °C). The solutions were scanned over 230–600 nm. Absorbance values were recorded 10 min after the addition of DNA solution. The binding constant, Kb was determined using the equation: [DNA]/(εa−εf)=[DNA]/(εb−εf)+1/Kb(εb−εf) where [DNA] is the concentration of DNA in base pairs, εa corresponds to the apparent molar extinction coefficient Aabs/[M], εf corresponds to the extinction coefficient for the free organotin [M] and εb corresponds to the extinction coefficient for the fully bound organotin compound.

Substance: Diphenyltin(IV) [Ph2Sn(S4MoVa), Diphenyltin(IV) [S-4-Methybenzyl-β-N-(2-hydroxy-3-methoxybenzylmethylene) dithiocarbazate]]
- GI50 [1]: 1 ± 0.16 µM
- GI50 (A431 (skin) cancer cells): 1.4 ± 0.38 µM
- GI50 [2]: 3.1 ± 0.37 µM
- GI50 [3]: 0.82 ± 0.14 µM
- GI50 [4]: 1.3 ± 0.4 µM
- Bathochromism Shift (nm) (calf thymus DNA (CT-DNA)): 4 nm
- Hypochromism, (%) (calf thymus DNA (CT-DNA)): 28.25%
- Gibbs Free Energy (calf thymus DNA (CT-DNA)): -7.41 kcal/mol

Substance: Diphenyltin(IV) [Ph2Sn(S2MoVa), Diphenyltin(IV) [S-2-Methybenzyl-β-N-(2-hydroxy-3-methoxybenzylmethylene) dithiocarbazate]]
- greater activity than respective Schiff base ([1]; GI50 comparison): 3 fold
- GI50 [1]: 0.84 ± 0.09 µM
- GI50 (A431 (skin) cancer cells): 2.1 ± 0.09 µM
- GI50 [2]: 0.35 ± 0.05 µM
- GI50 [3]: 1.4 ± 0.12 µM
- GI50 [4]: 4.4 ± 1.7 µM
- Bathochromism Shift (nm) (calf thymus DNA (CT-DNA)): 6 nm
- Hypochromism, (%) (calf thymus DNA (CT-DNA)): 41.06%
- Gibbs Free Energy (calf thymus DNA (CT-DNA)): -7.91 kcal/mol
